Data taken from patent US9718804B2, “GSK-3 inhibitors” (BRISTOL-MYERS SQUIBB COMPANY, priority 2013, dated 2017).
Read-outs that look alike come from different tables or passages of the source.

Experiments:
[1] = biological target: GSK3β (Homo sapiens, UniProt P49841); experiment: GSK3β kinase assay (Caliper LabChip, fluoresceinated peptide substrate); type: biochemical
Method in brief: (§1)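 Reaction: 20 h, room temperature. Quench: 35 mM EDTA. Detection: substrate/product separation by chip electrophoresis. Analysis: eleven concentrations, non-linear regression to IC50.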

[2] = biological target: GSK3α (Homo sapiens, UniProt P49840); experiment: GSK3α kinase assay (Caliper LabChip, fluoresceinated peptide substrate); type: biochemical
GSK3α, sequence (P49840 whole entry, species assumed): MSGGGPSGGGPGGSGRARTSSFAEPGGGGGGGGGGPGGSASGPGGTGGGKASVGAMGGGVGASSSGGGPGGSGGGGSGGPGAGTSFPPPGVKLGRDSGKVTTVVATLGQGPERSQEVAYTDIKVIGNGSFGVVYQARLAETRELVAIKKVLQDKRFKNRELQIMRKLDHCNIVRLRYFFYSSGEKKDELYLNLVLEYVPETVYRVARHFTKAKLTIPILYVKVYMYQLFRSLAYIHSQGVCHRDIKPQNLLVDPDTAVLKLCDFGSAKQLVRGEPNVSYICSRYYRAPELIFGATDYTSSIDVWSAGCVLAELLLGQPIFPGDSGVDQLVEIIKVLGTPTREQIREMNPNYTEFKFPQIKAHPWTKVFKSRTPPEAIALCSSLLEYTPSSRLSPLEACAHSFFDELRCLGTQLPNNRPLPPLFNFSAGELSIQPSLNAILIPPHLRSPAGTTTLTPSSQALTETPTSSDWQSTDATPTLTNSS
Method in brief: as §1

[3] = test system: pTau; experiment: pTau assay (no method described); type: cell-based
[4] = first value of the cell, 250 pM enzyme, 20 uM ATP, 20 hours at room temperature, read-out: GSK3β/α (nM): GSK3β IC50

GSK3β, sequence (P49841 whole entry, species assumed): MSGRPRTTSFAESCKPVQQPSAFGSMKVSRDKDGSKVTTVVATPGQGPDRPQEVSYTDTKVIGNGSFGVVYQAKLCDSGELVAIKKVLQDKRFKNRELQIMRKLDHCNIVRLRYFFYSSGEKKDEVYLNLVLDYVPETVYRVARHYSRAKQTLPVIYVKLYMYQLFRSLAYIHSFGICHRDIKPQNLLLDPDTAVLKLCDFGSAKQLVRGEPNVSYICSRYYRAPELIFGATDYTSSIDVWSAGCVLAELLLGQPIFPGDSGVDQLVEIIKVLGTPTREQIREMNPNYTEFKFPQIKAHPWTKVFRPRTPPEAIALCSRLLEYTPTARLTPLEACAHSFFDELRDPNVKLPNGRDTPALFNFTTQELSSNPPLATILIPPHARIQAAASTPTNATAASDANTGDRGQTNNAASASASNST

SMILES | IC50 [1, 4] | IC50 [2] | IC50 [3] | IC50 [1] | IC50 ([2]; second value of the cell, 250 pM enzyme, 20 uM ATP, 20 hours at room temperature, read-out: GSK3β/α (nM): GSK3α IC50)
O=C(Nc1cncnc1Br)c1ccnc(Nc2ccc(C(F)(F)F)cn2)c1 [Example 192, N-(4-Bromopyrimidin-5-yl)-2-((5-(trifluoromethyl)pyridin-2-yl)amino)isonicotinamide] | 23 nM | 9.3 nM | 520 nM |  | 
CCCC(O)c1cc(Cl)ncc1NC(=O)c1ccnc(Nc2ccc(C(F)(F)F)cn2)c1 (stereo not drawn) [Example 100, N-(6-Chloro-4-(1-hydroxybutyl)pyridin-3-yl)-2-((5-(trifluoromethyl)pyridin-2-yl)amino)isonicotinamide] | 11 nM | 8.4 nM | 500 nM |  | 
CC(C)CS(=O)(=O)c1ccncc1NC(=O)c1ccnc(Nc2ccc(C(F)(F)F)cn2)c1 [Example 185, N-(4-(Isobutylsulfonyl)pyridin-3-yl)-2-((5-(trifluoromethyl)pyridin-2-yl)amino)isonicotinamide] |  |  | 49 nM | 0.51 nM | 4.8 nM
O=C(Nc1cncc(-c2ccccc2Cl)c1)c1ccnc(Nc2cccc(C(F)(F)F)n2)c1 [Example 145, N-(5-(2-Chlorophenyl)pyridin-3-yl)-2-((6-(trifluoromethyl)pyridin-2-yl)amino)isonicotinamide] | 6.4 nM | 4.4 nM | 730 nM |  | 
O=C(Nc1cnc(F)cc1-c1ccccc1)c1ccnc(Nc2ccc(C(F)(F)F)cn2)c1 [Example 67, N-(6-Fluoro-4-phenylpyridin-3-yl)-2-((5-(trifluoromethyl)pyridin-2-yl)amino)isonicotinamide] | 7 nM | 4 nM | 524 nM |  | 
O=C(Nc1cnc(F)cc1OCC(F)F)c1ccnc(Nc2ccc(C(F)(F)F)cn2)c1 [Example 80, N-(4-(2,2-Difluoroethoxy)-6-fluoropyridin-3-yl)-2-((5-(trifluoromethyl)pyridin-2-yl)amino)isonicotinamide] | 6.2 nM | 3.3 nM | 86 nM |  | 
CN(C)S(=O)(=O)c1ccc(Nc2cc(C(=O)Nc3cncc(-c4ccccc4F)c3)ccn2)nc1 [Example 157, 2-((5-(N,N-Dimethylsulfamoyl)pyridin-2-yl)amino)-N-(5-(2-fluorophenyl)pyridin-3-yl)isonicotinamide] | 3.6 nM | 1.6 nM | 750 nM |  | 
O=C(Nc1cnc(Cl)cc1SC1CC1)c1ccnc(Nc2ccc(C(F)(F)F)cn2)c1 [Example 176, N-(6-Chloro-4-(cyclopropylthio)pyridin-3-yl)-2-((5-(trifluoromethyl)pyridin-2-yl)amino)isonicotinamide] | 11 nM | 7 nM | 1100 nM |  | 
O=C(Nc1cnccc1-c1ccccc1)c1cc(Nc2ccc(C(F)(F)F)cn2)ncc1F [Example 167, 5-Fluoro-N-(4-phenylpyridin-3-yl)-2-((5-(trifluoromethyl)pyridin-2-yl)amino)isonicotinamide] | 1.8 nM | 0.55 nM | 230 nM |  | 
O=C(Nc1cnccc1-c1ccc(F)cc1C(F)(F)F)c1ccnc(Nc2ccc(C(F)(F)F)cn2)c1 [Example 53, N-(4-(2-Trifluoromethyl-4-fluoro-phenyl)pyridin-3-yl)-2-((5-(trifluoromethyl)pyridin-2-yl)amino)isonicotinamide] | 0.51 nM | 0.57 nM | 8.3 nM |  | 
O=C(Nc1cnccc1-c1ccccc1F)c1ccnc(Nc2ccc(C(F)(F)F)cn2)c1 [Example 49, N-(4-(2-Fluorophenyl)pyridin-3-yl)-2-((5-(trifluoromethyl)pyridin-2-yl)amino)isonicotinamide] | 0.65 nM | 0.32 nM | 53 nM |  | 
O=C(Nc1cnc(Cl)cc1C(O)(C1CC1)C1CC1)c1ccnc(Nc2ccc(C(F)(F)F)cn2)c1 [Example 99, N-(6-Chloro-4-(dicyclopropyl(hydroxy)methyl)pyridin-3-yl)-2-((5-(trifluoromethyl)pyridin-2-yl)amino)isonicotinamide] | 6.4 nM | 4.6 nM | 430 nM |  | 
C[C@@H]1COCCN1c1ccncc1NC(=O)c1ccnc(Nc2ccc(C(F)(F)F)cn2)c1 [Example 21, (R)—N-(4-(3-Methylmorpholino)pyridin-3-yl)-2-((5-(trifluoromethyl)pyridin-2-yl)amino)isonicotinamide] | 0.7 nM | 0.28 nM | 9.1 nM |  | 
CC[C@@]1(c2cc(Cl)ncc2NC(=O)c2ccnc(Nc3ccc(C(F)(F)F)cn3)c2)OC[C@@H](C(F)(F)F)O1 [Example 85, N-(6-Chloro-4-((2R,4S)-2-ethyl-4-(trifluoromethyl)-1,3-dioxolan-2-yl)pyridin-3-yl)-2-((5-(trifluoromethyl)pyridin-2-yl)amino)isonicotinamide] | 64 nM | 35 nM | 5500 nM |  | 
CC(C)(C)C(=O)Nc1cccc(Nc2cc(C(=O)Nc3cncc(-c4ccccc4F)c3)ccn2)n1 [Example 154, N-(5-(2-Fluorophenyl)pyridin-3-yl)-2-((6-pivalamidopyridin-2-yl)amino)isonicotinamide] | 9.2 nM | 2.2 nM | 1100 nM |  | 
COc1ccc(Nc2cc(C(=O)Nc3cncc(-c4ccccc4F)c3)ccn2)nc1OC [Example 151, 2-((5,6-Dimethoxypyridin-2-yl)amino)-N-(5-(2-fluorophenyl)pyridin-3-yl)isonicotinamide] | 6 nM | 2.4 nM | 510 nM |  | 
CC(C)(C)C(O)c1cc(Cl)ncc1NC(=O)c1ccnc(Nc2ccc(C(F)(F)F)cn2)c1 (stereo not drawn) [Example 104, N-(6-Chloro-4-(1-hydroxy-2,2-dimethylpropyl)pyridin-3-yl)-2-((5-(trifluoromethyl)pyridin-2-yl)amino)isonicotinamide] | 18 nM | 9.9 nM | 280 nM |  | 
CCCS(=O)(=O)c1ccncc1NC(=O)c1ccnc(Nc2ccc(C(F)(F)F)cn2)c1 [Example 182, N-(4-(Propylsulfonyl)pyridin-3-yl)-2-((5-(trifluoromethyl)pyridin-2-yl)amino)isonicotinamide] | 5.2 nM | 2.1 nM | 15 nM |  | 
Cc1cc(-c2ccccc2)c(NC(=O)c2ccnc(Nc3ccc(C(F)(F)F)cn3)c2)cn1 [Example 68, N-(6-Methyl-4-phenylpyridin-3-yl)-2-((5-(trifluoromethyl)pyridin-2-yl)amino)isonicotinamide] | 12 nM | 5.7 nM | 1010 nM |  | 
O=C(Nc1cncc(OCC(F)(F)F)c1)c1ccnc(Nc2cccc(C(F)(F)F)n2)c1 [Example 123, N-(5-(2,2,2-Trifluoroethoxy)pyridin-3-yl)-2-((6-(trifluoromethyl)pyridin-2-yl)amino)isonicotinamide] |  | 3.2 nM | 520 nM | 7.4 nM | 
O=C(Nc1cnccc1C1=CCOCC1)c1ccnc(Nc2ccc(C(F)(F)F)cn2)c1 [Example 32, N-(4-(3,6-Dihydro-2H-pyran-4-yl)pyridin-3-yl)-2-((5-(trifluoromethyl)pyridin-2-yl)amino)isonicotinamide] | 2.3 nM | 0.78 nM | 71 nM |  | 
O=C(Nc1cncc(-c2ccccc2F)c1)c1ccnc(Nc2ccc(C(F)(F)F)cn2)c1 [Example 127, N-(5-(2-Fluorophenyl)pyridin-3-yl)-2-((5-(trifluoromethyl)pyridin-2-yl)amino)isonicotinamide] | 11 nM | 6 nM | 1750 nM |  | 
O=C(Nc1cnccc1OCC(F)(F)F)c1ccnc(Nc2ccc(C(F)(F)F)cn2)c1 [Example 18, N-(4-(Trifluoroethoxy)pyridin-3-yl)-2-((5-(trifluoromethyl)pyridin-2-yl)amino)isonicotinamide] | 0.71 nM | 0.42 nM | 13 nM |  | 
O=C(Nc1cncc(-c2ccccc2F)c1)c1ccnc(Nc2ccc3ccccc3n2)c1 [Example 142, N-(5-(2-Fluorophenyl)pyridin-3-yl)-2-(quinolin-2-ylamino)isonicotinamide] | 23 nM | 5.6 nM | 2100 nM |  | 
CCOc1ccncc1NC(=O)c1ccnc(Nc2cc(C)ccn2)c1 [Example 13, N-(4-Ethoxypyridin-3-yl)-2-((4-methylpyridin-2-yl)amino)isonicotinamide] | 1.4 nM | 2.3 nM | 154 nM |  | 
O=C(Nc1cnccc1C1=CCCCC1)c1ccnc(Nc2ccc(C(F)(F)F)cn2)c1 [Example 36, N-(4-(Cyclohex-1-en-1-yl)pyridin-3-yl)-2-((5-(trifluoromethyl)pyridin-2-yl)amino)isonicotinamide] | 2.9 nM | 1.4 nM | 130 nM |  | 
Cc1ccc(Nc2cc(C(=O)Nc3cnccc3-c3ccccc3)ccn2)nc1 [Example 5, 2-((5-Methylpyridin-2-yl)amino)-N-(4-phenylpyridin-3-yl)isonicotinamide] | 0.77 nM | 4.8 nM | 183 nM |  | 
O=C(Nc1cncc(-c2ccccc2F)c1)c1ccnc(Nc2ccc(F)cn2)c1 [Example 131, N-(5-(2-Fluorophenyl)pyridin-3-yl)-2-((5-fluoropyridin-2-yl)amino)isonicotinamide] |  | 3 nM | 640 nM | 6.1 nM | 
CN(C)S(=O)(=O)c1ccc(Nc2cc(C(=O)Nc3cnccc3OCC(F)(F)F)ccn2)nc1 [Example 30, 2-((5-(N,N-Dimethylsulfamoyl)pyridin-2-yl)amino)-N-(4-(2,2,2-trifluoroethoxy)pyridin-3-yl)isonicotinamide] | 0.5 nM | 0.31 nM | 24 nM |  | 
O=C(Nc1cncnc1-c1ccccc1)c1ccnc(Nc2ccc(C(F)(F)F)cn2)c1 [Example 193, N-(4-Phenylpyrimidin-5-yl)-2-((5-(trifluoromethyl)pyridin-2-yl)amino)isonicotinamide] | 3.6 nM | 1.9 nM | 165 nM |  | 
